{"source": "patent US9127079B2", "about": "“Inhibitors of phosphatase and tensin homolog (PTEN) conjugates” (THE UNIVERSITY OF BRITISH COLUMBIA, priority 2009, dated 2015)", "key": {"[1]": {"experiment": "Body asymmetry (elevated body swing test) after cerebral ischemia", "assay_type": "in vivo, rat", "details": "vs Peptide-K13R, Peptide-K289, saline", "protocol": "(§1) Adult male Sprague-Dawley rats (weight 200 g) were used in this study. All surgical procedures were performed using sterile/aseptic techniques in accordance with Institutional guidelines. Rats were anesthetized with chloral hydrate (0.4 g/kg IP) and subjected to cerebral ischemia. Ligation of the right middle cerebral artery (MCA) and bilateral common carotids arteries (CCAs) was performed by methods described previously (Shyu et al. 2005). The CCAs were clamped with non-traumatic arterial clips. The right MCA was ligated with a 10-0 nylone suture. After 90 min of ischemia, the suture on the MCA and the arterial clips on the CCAs were removed to allow reperfusion. Core body temperature was monitored with a thermistor probe (Hewlett-Packard™ Model 21090A probe, Hewlett-Packard Company™, Andover, Mass.), and maintained at 37° C. with a heating pad during anesthesia. […]\n(§2) Behavioral assessments were measured on day 28 after stroke. […] The baseline-test scores were recorded in order to normalize those taken after cerebral ischemia. The elevated body swing test (EBST) was used to assess body asymmetry after MCA ligation and evaluated quantitatively as previously described (Shyu et al. 2004). […] The frequency of initial head swing contra-lateral to the ischemic side was counted in twenty continuous tests and was normalized, as follows: % recovery=[1−(lateral swings in twenty tests−10)/10×100%. […]"}, "[2]": {"experiment": "Locomotor activity after cerebral ischemia", "assay_type": "in vivo, rat", "details": "vs other groups", "protocol": "as §1, §2"}, "[3]": {"system": "PTEN", "experiment": "Immunostaining of endogenous PTEN: nuclear translocation in cultured neurons with NMDA", "assay_type": "cell-based, rat", "details": "peptide 10 uM, NMDA stimulation", "protocol": "Dissociated cultures of rat cortical or hippocampal neurons were prepared from 18-d-old Sprague Dawley rat embryos as described previously (Mielke and Wang 2005). To obtain mixed cultures enriched with neurons, uridine (10 μM) and 5-Fluor-T-deoxyuridine (10 μM) were added to the culture medium at 3 d in vitro (DIV) and maintained for 48 h to inhibit non-neuronal cell proliferation before the cultures were returned to the normal culture medium. Mature neurons (12-14 DIV) were used for experiments.\nIn order to induce excitotoxicity, 12-14 DIV cultured neurons were washed and transferred to Mg2+-free extracellular solution (ECS) containing the following (in mM): 25 HEPES acid, 140 NaCl, 33 glucose, 5.4 KCl, and 1.3 CaCl2, with pH 7.35 and osmolarity 320-330 mOsm. ECS and subjected to NMDA-induced excitotoxicity (20 μM NMDA, 10 μM glycine, 60 min at room temperature) or any other experimental conditions as indicated in the texts. Cells were then washed twice with normal ECS, and returned to the original growth conditions until additional assay."}, "[4]": {"system": "transplanted iPS-NPCs", "experiment": "Survival of iPS-NPCs transplanted intracerebrally after focal cerebral ischemia in the rat (TUNEL)", "assay_type": "in vivo", "description": "iPS-MEF-Ng-20D-17 from Kyoto University, and Cell Bank of RIKEN BioResource Center of Japan (Okita K. et al. Nature (2007) 448(7151):313-17) was induced into iPS-NPCs using a multistage differentiation protocol with some modifications (Kumagai G. et al. PLoS ONE (2009) 4(11):e7706). In brief, the human iPS cells expanding on irradiated MEF feeder cells were passaged, and then transferred to nonadherent culture dishes where they readily formed spheroid embryoid bodies (EBs). Clusters of neuroepithelial-like cells could be isolated and propagated from EBs in the medium of DMEM-F12, N2 supplement (1%; Invitrogen), and 20 ng/mL FGF-2 (R&D Systems™, Germany).\nPrior to transplantation, the iPS-NPSs were labeled using 1 μg/mL bis-benzimide (Hoechst™ 33342; Sigma™) for 1 hours at 37° C. as previously described (Shyu W C. et al. J Clin Invest (2008) 118(1):133-148). Labeled cells were then collected and washed in PBS three times. iPS-NPCs were counted using a cytometer to ensure an adequate cell number for transplantation. One week after brain ischemia, adult male Sprague-Dawley rats (weight >300 g) were anesthetized with chloral hydrate (0.4 g/kg, ip) and injected stereotaxically with approximately 1×10^6 cells in a 3-5 μL PBS suspension through a 26-gauge Hamilton syringe into 3 cortical areas adjacent to the right MCA, 3.0 to 5.0 mm below the dura. […]"}}}
{"substance": "KEIVSRNKRRYQED-YGRKKRRQRRR (KEIVSRNKRRYQEDYGRKKRRQRRR; PTEN K13 interference peptide conjugated to TAT protein transduction domain) [Peptide-K13]", "values": [{"measurement": "recovery in body swing tests", "setting": "[1]; given 2 hours after ischemia", "value": "much more recovery"}, {"measurement": "recovery in body swing tests", "setting": "[1]; given 6 hours after ischemia", "value": "much more recovery"}, {"measurement": "locomotor activities (vertical activity, vertical time, number of vertical movements)", "setting": "[2]; given 2 hours after ischemia", "value": "significantly better"}, {"measurement": "locomotor activities (vertical activity, vertical time, number of vertical movements)", "setting": "[2]; given 6 hours after ischemia", "value": "significantly better"}, {"measurement": "PTEN nuclear translocation (endogenous PTEN immunostaining)", "setting": "[3]", "value": "prevented PTEN nuclear translocation"}, {"measurement": "TUNEL positive transplanted iPS-NPCs", "setting": "[4]; 7 days after transplantation, vs saline-treated rats, n=6", "value": "significantly fewer"}, {"measurement": "survival rate of transplanted iPS-NPCs", "setting": "[4]; intravenous 8.4 mg/kg once a day for 7 days following transplantation, ischemic rat", "value": "significantly increased"}]}
